Results taken from publication PMC3816703, “Toxicity Studies on Novel N-Substituted Bicyclo-Heptan-2-Amines at NMDA Receptors” (Pharmaceuticals, 2013).
Where two headings read alike, the source gives them in different places.

Assays:
MDCK cells = assay: MTT cell viability assay on MDCK cells (24 h treatment); assay type: cell-based, Canine; settings: for IC50: Canis lupus familiaris, read-out: MTT test (IC50)
Experimental: (§1) MDCK cells were used to simulate toxicities of the novel NMDA receptor uncompetitive antagonists 5a–f on BBB in vitro [18, 19]. We treated cells with 0–500 µM concentrations of test compound or memantine for 24 h. Cell viability was assessed by the capacity of cells to reduce the MTT dye (Figure 2A,B). […] It is known, that under therapeutic conditions in patients, the serum level of memantine is about 1 µM [20]. Since the binding potencies of some of the target compounds are in same range (micromolar) as that of memantine, the 1 µM concentration was used as reference in estimating possible therapeutic indexes. […] The mean percentage of viable cells was 101 ± 0.24 (p > 0.05), 95.6 ± 0.25 (p > 0.05) for memantine and 104 ± 0.11 (p > 0.05), 105 ± 0.06 (p > 0.05) for compound 5a at 10 and 50 µM, respectively, as compared to untreated cells.
(§2) Mouse Neuro-2a (CCL-131, ATCC, Manassas, VA, USA) and MDCK (CCL-34, ATCC) were used in this study. The cells were routinely propagated using Dulbecco’s Modification of Eagle’s Medium (DMEM, ATCC) for N2a and Eagle’s Minimum Essential Medium (EMEM, ATCC) for MDCK cells, supplemented with 10% fetal bovine serum (FBS, ATCC) and 1% penicillin/ streptomycin (Gibco, Grand Island, NY, USA) in 100 cm^2 Petri-dishes (Corning, Tewksbury, MA, USA) at 37 °C in 5% CO2. For neuronal differentiation, N2a cells were cultivated in DMEM supplemented with 2% FBS in the presence of 20 µM retinoic acid (RA, Sigma, St. Louis, MO, USA).
(§3) All six compounds 5a–f were obtained as salts. Stock solutions (1 mM) were prepared in double distilled water. The treatment concentrations for the compounds and for memantine (Sigma) were 10, 50, 100, 200, 300, and 500 μM. Cells were allowed to attach overnight prior to treatment. H2O2 served as positive control. Working concentrations were prepared immediately prior to treatment by dilution with medium.
(§4) The MTT (3-(4,5-dimethylthiazole-2-yl)-2,5-diphenyltetrazolium bromide) assay is a well-documented and widely-used cell viability assay. MTT is incorporated into the cell by endocytosis and is reduced by mitochondrial enzymes in living cells to a blue colored formazan precipitate. The absorbance of dissolved formazan in the visible region correlates with the number of intact alive cells. Cells were plated at a concentration of 13,000 to 20,000 cells/well on a 96-well round-bottom plate (Fisher, Pittsburgh, PA, USA). The MTT assay (ATCC, 30-1010K) was performed according to the manufacturer’s instructions. The following determinants were optimized for each cell line: plating cell concentration; incubation time with MTT reagent, and incubation time with detergent reagent. Absorbance was recorded at 570 nm by a microtiter plate reader (VICTOR, PerkinElmer, Waltham, MA, USA). The number of surviving cells is directly proportional to the level of the formazan product generated. Each experiment was repeated on three separate occasions and results are presented as the mean absorbance ± S.E.M.
(§5) The Student’s t test was applied to evaluate the significance of differences among each group. A p value of 0.05 or less was considered to be significant. Error bars in the graphs are expressed as S.E.M. with experiments performed in triplicate. IC50 values were calculated according to the SoftMax Pro GxP analytical software. Standard Curves were plotted using the OD Mean Value (Y) versus Concentration (X) and applying a 4-Parameter fit with a variable weight source curve fit option of 1/Y^2. Results are presented as mean ± S.E.M.

[1] = as above; assay type: cell-based, Canine; settings: dog, MDCK cells, 24 h, as compared to untreated cells, read-out: mean percentage of viable cells
Experimental: as §1, §2, §3, §4, §5

[2] = test system: MES (maximal electroshock)-induced neural damage; parameters: method as in PMID 21496213; settings: rodents; among compounds 5a–f; cited from earlier work
N2a cells = assay: MTT cell viability assay on N2a cells (24 h treatment); assay type: cell-based, Mouse; settings: Mus musculus, read-out: MTT test (IC50)
Experimental: (§6) To examine neuronal cell toxicity, N2a cells were exposed to each of compounds 5a–f or memantine for 24 h at 0–500 µM concentrations, and cell viability was measured by MTT assay. In the present experiments, increasing the concentration of antagonists increased the toxicity of both test compounds and memantine in dose dependent manner (Figure 4A,B). […] No significant reduction in cell concentration was observed using phase contrast microscopy (Figure 5). The mean percentage of viable cells was 94.6 ± 0.29 (p > 0.05), 91.6 ± 0.26 (p > 0.05) for memantine and 93 ± 0.35 (p > 0.05), 77 ± 0.35 (p > 0.05) for compound 5a at 10 and 50 µM, respectively, as compared to untreated cells.
as §2, §3, §4, §5

[3] = as above; assay type: cell-based, Mouse; settings: mouse, N2a cells, 24 h, as compared to untreated cells, read-out: mean percentage of viable cells
Experimental: as §6, §2, §3, §4, §5

NMDA receptor = test system: NMDA receptor; parameters: method as in PMID 21496213; settings: among compounds 5a–f; cited from earlier work
[4] = patients; cited from earlier work
[5] = N2a cells, 24 h treatment, mean n = 3, concentration yielding 50% inhibition of mitochondrial enzyme activity

Q: With c1ccc(C2(NCCN3CCCCC3)CC3CCC2C3)cc1 (centres unmarked) [5a, 2-phenyl-N-(2-(piperidin-1-yl)ethyl)bicyclo[2.2.1]heptan-2-amine] as the compound, how does the IC50 (MDCK cells; MDCK, 24 h) read?
A: 155 µM

Q: And the viability at 24 h, 10 µM [1]?
A: 104 ± 0.11%

Q: What about the viability at 24 h, 50 µM [1] of the same compound?
A: 105 ± 0.06%

Q: What about the “protection from MES (maximal electroshock)-induced neural damage” value [2] of the same compound?
A: greatest degree of protection

Q: What about the IC50 (N2a cells; N2a, 24 h) of the same compound?
A: 154 µM

Q: And the viability at 24 h, 10 µM [3]?
A: 93 ± 0.35%

Q: What about the viability at 24 h, 50 µM [3] of the same compound?
A: 77 ± 0.35%

Q: And the “affinity for NMDA receptor” value (NMDA receptor)?
A: highest affinity

Q: For Fc1ccc(C2(NCCN3CCCCC3)CC3CCC2C3)cc1 (centres unmarked) [5b], which IC50 (MDCK cells; MDCK, 24 h) is on record?
A: 201 µM

Q: What about the IC50 (N2a cells; N2a, 24 h) of the same compound?
A: 291 µM

Q: For c1ccc(C2(NCCN3CCOCC3)CC3CCC2C3)cc1 (centres unmarked) [5c, N-(2-morpholinoethyl)-2-phenylbicyclo [2.2.1]heptan-2-amine], which IC50 (MDCK cells; MDCK, 24 h) is on record?
A: 424 µM

Q: And the IC50 (N2a cells; N2a, 24 h)?
A: 253 µM

Q: With Fc1ccc(C2(NCCN3CCOCC3)CC3CCC2C3)cc1 (centres unmarked) [5d, 2-(4-fluorophenyl)-N-(2-morpholino-ethyl)bicyclo [2.2.1]heptan-2-amine] as the compound, how does the IC50 (MDCK cells; MDCK, 24 h) read?
A: > 1000 µM

Q: And the IC50 (N2a cells; [5])?
A: > 1000 µM

Q: With c1ccc(C2(NCCN3CCCC3)CC3CCC2C3)cc1 (centres unmarked) [5e, 2-phenyl-N-(2-(pyrrolidin-1-yl)ethyl) bicyclo[2.2.1]heptan-2-amine] as the compound, how does the IC50 (MDCK cells; MDCK, 24 h) read?
A: 313 µM

Q: And the IC50 (N2a cells; N2a, 24 h)?
A: 165 µM

Q: For Fc1ccc(C2(NCCN3CCCC3)CC3CCC2C3)cc1 (centres unmarked) [5f], which IC50 (MDCK cells; MDCK, 24 h) is on record?
A: 305 µM

Q: And the IC50 (N2a cells; [5])?
A: 71 µM

Q: With CC12CC3CC(C)(C1)CC(N)(C3)C2 [memantine, 1-amino-3,5-dimethyladamantine, reference compound] as the compound, how does the IC50 (MDCK cells; MDCK cells, 24 h treatment, mean n = 3, concentration yielding 50% inhibition of mitochondrial enzyme activity) read?
A: 197 µM

Q: And the “concentration above which a concentration dependent decline in numbers of viable cells occurs” value (MDCK cells; MDCK cells, 0–500 µM, 24 h, MTT)?
A: higher than 100 µM

Q: What about the viability at 24 h, 10 µM [1] of the same compound?
A: 101 ± 0.24%

Q: And the viability at 24 h, 50 µM [1]?
A: 95.6 ± 0.25%

Q: What about the “serum level under therapeutic conditions” value [4] of the same compound?
A: about 1 µM

Q: And the IC50 (N2a cells; [5])?
A: 219 µM

Q: What about the viability at 24 h, 10 µM [3] of the same compound?
A: 94.6 ± 0.29%

Q: What about the viability at 24 h, 50 µM [3] of the same compound?
A: 91.6 ± 0.26%
